The NIST ThermoML archive (doi:10.1016/j.fluid.2005.08.018)
“And” between values parts separate entries of the source, which are not always exact repeats. Identical values can stand only once. Numbers after ± are expanded uncertainties.

Assay: activity coefficient (dimensionless); of the first substance listed, at infinite dilution; xn = mol fraction of the nth substance listed
Conditions: Liquid, x1 = 0
[1] = 303.15 K, comparative tensimetry
[2] = 308.15 K, comparative tensimetry
[3] = 313.15 K, comparative tensimetry
[4] = 318.15 K, comparative tensimetry
[5] = 323.15 K, comparative tensimetry
[6] = 328.15 K, comparative tensimetry
[7] = 333.15 K, comparative tensimetry
[8] = 358.15 K, circulating still method
[9] = 363.15 K, circulating still method
[10] = 368.15 K, circulating still method
[11] = 372.15 K, circulating still method

Compound	activity coefficient (273.35 K, headspace analysis)	activity coefficient (283.15 K, headspace analysis)	activity coefficient (293.15 K, headspace analysis)	activity coefficient [1]	activity coefficient [2]	activity coefficient [3]	activity coefficient [4]	activity coefficient [5]	activity coefficient [6]	activity coefficient [7]	activity coefficient [8]	activity coefficient [9]	activity coefficient [10]	activity coefficient [11]	also measured
CO [methanol] + O	1.23 ± 0.04	1.4 ± 0.04	1.55 ± 0.05	1.71 ± 0.05	1.8 ± 0.05	1.88 ± 0.06	1.95 ± 0.06	2.02 ± 0.06	2.09 ± 0.06	2.16 ± 0.07	–	–	–	–	activity coefficient (358.15 K, circulation still method): 2.31 ± 0.07; activity coefficient (363.15 K, circulation still method): 2.38 ± 0.07; activity coefficient (368.15 K, circulation still method): 2.41 ± 0.07; activity coefficient (372.15 K, circulation still method): 2.4 ± 0.07
CCO [ethanol] + O	2.54 ± 0.08	3.13 ± 0.09	–	4.14 ± 0.12	4.43 ± 0.13	4.66 ± 0.14	4.85 ± 0.15	5.03 ± 0.15	5.2 ± 0.16	5.3 ± 0.16	5.9 ± 0.2	6 ± 0.2	6.1 ± 0.2	6.2 ± 0.2	–
CCCO [propan-1-ol] + O	8.9 ± 0.3	11.2 ± 0.3	13.5 ± 0.4	15.3 ± 0.5	16.1 ± 0.5	16.7 ± 0.5	17.5 ± 0.5	18.1 ± 0.5	18.6 ± 0.6	19 ± 0.6	20.1 ± 0.6	19.5 ± 0.6	18.7 ± 0.6	18.9 ± 0.6	–
CCCCO [butan-1-ol] + O	32.6 ± 1	40.4 ± 1.2	48.4 ± 1.5	53.4 ± 1.6	57.2 ± 1.7	58.9 ± 1.8	60.2 ± 1.8	61.5 ± 1.8	62.8 ± 1.9	63.4 ± 1.9	–	–	–	56.1 ± 1.7	activity coefficient (323.15 K, headspace analysis): 58.7 and 59.4
CCCCCO [pentan-1-ol] + O	121 ± 4	156 ± 5	184 ± 6	–	–	–	–	–	–	–	–	181 ± 5	–	–	activity coefficient (303.15 K, inert gas stripping): 203 ± 6; activity coefficient (313.15 K, inert gas stripping): 221 ± 7; activity coefficient (323.15 K, inert gas stripping): 230 ± 7; activity coefficient (333.15 K, Rayleigh distillation): 221 ± 7; activity coefficient (343.15 K, Rayleigh distillation): 206 ± 6; activity coefficient (353.15 K, circulating still method): 203 ± 6; activity coefficient (371.15 K, circulating still method): 169 ± 5
